Reference: paper PMC10999543, “Identification of kinase modulators as host-directed therapeutics against intracellular methicillin-resistant Staphylococcus aureus” (Frontiers in Cellular and Infection Microbiology, 2024)
Where two headings read alike, the source gives them in different places.

Legend:
[1] = system: intracellular MRSA; format: cell-based, Staphylococcus aureus; settings: for %GFP+ rep 1 / z-scoreMRSA+ rep 1: replicate 1; for %GFP+ rep 2 / z-scoreMRSA+ rep 2: replicate 2; for %GFP+ rep 3 / z-scoreMRSA+ rep 3: replicate 3; for z-scoreMRSA+ mean: mean of 3 replicates; for %GFP+ rep 1: test concentration or dose not given here; for %GFP+ rep 2: test concentration or dose not given here; for %GFP+ rep 3: test concentration or dose not given here; for effect: test concentration or dose not given here; for z-scoreMRSA+ mean: test concentration or dose not given here; for z-scoreMRSA+ rep 1: test concentration or dose not given here; for z-scoreMRSA+ rep 2: test concentration or dose not given here; for z-scoreMRSA+ rep 3: test concentration or dose not given here
How it was run: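 Values are z-scores: GFP-positive HeLa percentage and event count per well against plate statistics, minus the mean DMSO z-score. Wells deviating two-fold from controls were left out of plate means. Infection was at a mean MOI of 6.8, with an overnight compound exposure.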

[2] = system: HeLa cells; experiment: Compound screen by flow cytometry: HeLa cell count as surrogate readout of cell viability (z-scoreHeLa); format: cell-based, human; settings: for cell count rep 1 / z-scoreHeLa rep 1: replicate 1; for cell count rep 2 / z-scoreHeLa rep 2: replicate 2; for cell count rep 3 / z-scoreHeLa rep 3: replicate 3; for z-scoreHeLa mean: mean of 3 replicates; for all read-outs here: test concentration or dose not given here
How it was run: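 The viability surrogate was the count of fixed HeLa cells by flow cytometry, converted to z-scores against DMSO controls with values deviating two-fold excluded. Before counting, cells had been infected with MRSA for 1 h and cleared of extracellular bacteria with gentamicin. They were then exposed overnight to kinase inhibitors in triplicate.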

[3] = PKIS compound screen raw data, MRSA-infected HeLa cells
[4] = PKIS compound screen, MRSA-infected HeLa cells
[5] = PKIS compound screen, Yes/No call (effect without cell death)
[6] = PKIS compound screen, Yes/No call on z-scoreMRSA+
[7] = PKIS compound screen raw data, HeLa cell count
[8] = PKIS compound screen, HeLa cell count
[9] = PKIS compound screen, Yes/No call on z-scoreHeLa
[10] = compound screen, MRSA-infected HeLa cells
[11] = compound screen, HeLa cell count
[12] = PKIS compound screen, Yes/No call
[13] = PKIS compounds raw data, MRSA-infected HeLa cells
[14] = PKIS compounds raw data, HeLa cell count

SMILES	%GFP+ rep 1 [1, 3] [%]	%GFP+ rep 2 [1, 3] [%]	%GFP+ rep 3 [1, 3] [%]	z-scoreMRSA+ mean [1, 4]	z-scoreMRSA+ rep 1 [1, 4]	z-scoreMRSA+ rep 2 [1, 4]	z-scoreMRSA+ rep 3 [1, 4]	hit [1, 5]	effect [1, 6]	cell count rep 1 [2, 7]	cell count rep 2 [2, 7]	cell count rep 3 [2, 7]	z-scoreHeLa mean [2, 8]	z-scoreHeLa rep 1 [2, 8]	z-scoreHeLa rep 2 [2, 8]	z-scoreHeLa rep 3 [2, 8]	cell death [2, 9]	further results
COc1cc(C)c(N(C)C(=O)CN(C)C)cc1Nc1nc(Nc2cccc(F)c2C(N)=O)c2cc[nH]c2n1 [GSK2219385A]	15.2	16.3	17.5	-0.74	-0.84	-0.67	-0.70	No	No	14421	25742	38560	-0.95	-0.86	-1.69	-0.31	No	–
Cc1c(Cn2ccn3c(=O)cc(N4CCOCC4)nc23)cccc1C(F)(F)F [GSK2289044B]	13.5	15.4	14.7	-1.29	-1.38	-0.94	-1.55	No	No	23358	26653	34666	-0.65	0.49	-1.52	-0.93	No	–
O=c1cc(N2CCOCC2)nc2n(Cc3cccc(Cl)c3)ccn12 [GSK2296823A]	13.9	14.9	15.7	–	–	–	–	–	–	36512	34515	25382	–	–	–	–	–	effect ([1]; Yes/No call from z-scoreMRSA+): No; hit ([1]; Yes/No: effect without cell death): No; z-scoreMRSA+ mean [1, 10]: -1.35; z-scoreMRSA+ rep 1 [1, 10]: -1.30; z-scoreMRSA+ rep 2 [1, 10]: -1.23; z-scoreMRSA+ rep 3 [1, 10]: -1.51; cell death ([2]; Yes/No call from z-scoreHeLa): No; z-scoreHeLa mean [2, 11]: 1.30; z-scoreHeLa rep 1 [2, 11]: 1.07; z-scoreHeLa rep 2 [2, 11]: 1.58; z-scoreHeLa rep 3 [2, 11]: 1.26
Cc1cccc(Cn2ccn3c(=O)cc(N4CCOCC4)nc23)c1 [GSK2297542A]	14.5	15.7	16.8	-1.12	-1.14	-1.01	-1.21	No	No	36714	30989	25952	1.15	1.10	0.98	1.37	No	effect [1, 12]: No; z-scoreMRSA+ mean ([1]; PKIS compound screen): -0.44; z-scoreMRSA+ rep 1 ([1]; PKIS compound screen): -0.63; z-scoreMRSA+ rep 2 ([1]; PKIS compound screen): -0.16; z-scoreMRSA+ rep 3 ([1]; PKIS compound screen): -0.51; %GFP+ rep 1 [1, 13]: 23.8%; %GFP+ rep 2 [1, 13]: 25.2%; %GFP+ rep 3 [1, 13]: 24.5%; cell death [2, 12]: No; z-scoreHeLa mean ([2]; PKIS compound screen): 0.56; z-scoreHeLa rep 1 ([2]; PKIS compound screen): 0.45; z-scoreHeLa rep 2 ([2]; PKIS compound screen): 0.33; z-scoreHeLa rep 3 ([2]; PKIS compound screen): 0.91; cell count rep 1 [2, 14]: 6792; cell count rep 2 [2, 14]: 6500; cell count rep 3 [2, 14]: 7025
O=c1cc(N2CCOCC2)nc2n(Cc3cccc4ccccc34)ccn12 [GSK2333389A]	11.3	12.1	12.6	-2.07	-2.08	-1.93	-2.19	Yes	Yes	20901	33281	38349	-0.17	0.12	-0.28	-0.35	No	–
